According to patent publication US20100022491A1, “4-HYDROXY-2-OXO-2,3-DIHYDRO-1,3-BENZOTHIAZOL-7YL COMPOUNDS FOR MODULATION OF B2-ADRENORECEPTOR ACTIVITY” (ASTRAZENECA AB, priority 2006, published 2010):
Where a name gives a salt, the structure may show the parent alone.

Tests used:
Adrenergic β2 = target: T1, Adrenergic β2 (Homo sapiens, UniProt P07550); experiment: Adrenergic β2 mediated cAMP production in H292 cells; format: cell-based; conditions: for EC50: H292 cells, cAMP by AlphaScreen, 60 minutes at room temperature, rolipram 300 μM, read-out: β2 pEC50 (converted); for β2 Int Act: Intrinsic Activity as a fraction relative to the maximum activity determined for formoterol
T1 construct: Adherent H292 cells were removed from tissue culture flasks; endogenous in cells; host or cells: H292 cells
Method in brief: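 H292 cells pretreated 10 min with rolipram (300 μM final), then exposed to agonist 60 min at room temperature in HEPES-buffered HBSS, 1.6% DMSO final. Lysate cAMP quantified by AlphaScreen against a cAMP standard curve; four-parameter fit gives pEC50 and intrinsic activity relative to formoterol maximum.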

[1] = target: T2, recombinant human adrenergic beta 1 receptors (Homo sapiens, UniProt P08588); experiment: Adrenergic β1 selectivity binding assay ([125I]-Iodocyanopindolol); conditions: inhibition of [125I]-Iodocyanopindolol (0.036 nM) binding; read-out: β1 bind p IC50 (converted)
T2 construct: purchased Euroscreen
Experimental: Membranes containing recombinant human adrenergic beta 1 receptors were obtained from Euroscreen. These were diluted in Assay Buffer (50 mM HEPES, 1 mM EDTA, 120 mM NaCl, 0.1% gelatin, pH 7.4) to provide a final concentration of membranes that gave a clear window between maximum and minimum specific binding.
Assays were performed in U-bottomed 96-well polypropylene plates. 10 μL [^125I]-Iodocyanopindolol (0.036 nM final concentration) and 10 μL of test compound (10× final concentration) were added to each test well. For each assay plate 8 replicates were obtained for [^125I]-Iodocyanopindolol binding in the presence of 10 μL vehicle (10% (v/v) DMSO in Assay Buffer; defining maximum binding) or 10 μL Propranolol (10 μM final concentration; defining non-specific binding (NSB)). Membranes were then added to achieve a final volume of 100 μL. The plates were incubated for 2 hours at room temperature and then filtered onto PEI coated GF/B filter plates, pre-soaked for 1 hour in Assay Buffer, using a 96-well plate Tomtec cell harvester. Five washes with 250 μL wash buffer (50 mM HEPES, 1 mM EDTA, 120 mM NaCl, pH 7.4) were performed at 4° C. to remove unbound radioactivity. The plates were dried then sealed from underneath using Packard plate sealers and MicroScint-O (50 μL) was added to each well. The plates were sealed (TopSeal A) and filter-bound radioactivity was measured with a scintillation counter (TopCount, Packard BioScience) using a 3-minute counting protocol.
Total specific binding (B0) was determined by subtracting the mean NSB from the mean maximum binding. NSB values were also subtracted from values from all other wells. […] Data was fitted to a four parameter logistic equation to determine the compound potency, which was expressed as pIC50 (negative log molar concentration inducing 50% inhibition of [^125I]-Iodocyanopindolol binding).

[2] = target: T3, recombinant human Dopamine Subtype D2s receptors (Homo sapiens, UniProt P14416); experiment: Dopamine D2 selectivity binding assay ([3H]-spiperone); conditions: inhibition of [3H]-spiperone (0.16 nM) binding; read-out: D2 bind pIC50 (converted)
T3 construct: purchased Perkin Elmer
Method in brief: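 Recombinant human D2s membranes incubated 2 h at room temperature with 0.16 nM [3H]-spiperone in HEPES/EDTA/NaCl/gelatin buffer, pH 7.4; 10 μM haloperidol defined non-specific binding. Filter-bound radioactivity counted after cold washes. pIC50 from 4-parameter logistic fit of NSB-corrected specific binding.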

T1 sequence (P07550 whole entry): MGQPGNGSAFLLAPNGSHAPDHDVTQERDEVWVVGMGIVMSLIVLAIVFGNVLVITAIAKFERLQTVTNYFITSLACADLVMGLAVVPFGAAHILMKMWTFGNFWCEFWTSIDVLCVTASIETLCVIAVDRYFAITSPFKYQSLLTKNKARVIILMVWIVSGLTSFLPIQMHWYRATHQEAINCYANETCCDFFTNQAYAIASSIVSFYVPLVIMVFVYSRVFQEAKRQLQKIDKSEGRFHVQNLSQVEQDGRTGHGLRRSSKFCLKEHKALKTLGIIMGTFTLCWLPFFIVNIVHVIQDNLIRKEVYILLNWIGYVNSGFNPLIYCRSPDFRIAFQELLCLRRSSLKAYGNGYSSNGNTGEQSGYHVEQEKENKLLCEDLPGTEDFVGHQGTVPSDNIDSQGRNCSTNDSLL
T2 sequence (P08588 whole entry): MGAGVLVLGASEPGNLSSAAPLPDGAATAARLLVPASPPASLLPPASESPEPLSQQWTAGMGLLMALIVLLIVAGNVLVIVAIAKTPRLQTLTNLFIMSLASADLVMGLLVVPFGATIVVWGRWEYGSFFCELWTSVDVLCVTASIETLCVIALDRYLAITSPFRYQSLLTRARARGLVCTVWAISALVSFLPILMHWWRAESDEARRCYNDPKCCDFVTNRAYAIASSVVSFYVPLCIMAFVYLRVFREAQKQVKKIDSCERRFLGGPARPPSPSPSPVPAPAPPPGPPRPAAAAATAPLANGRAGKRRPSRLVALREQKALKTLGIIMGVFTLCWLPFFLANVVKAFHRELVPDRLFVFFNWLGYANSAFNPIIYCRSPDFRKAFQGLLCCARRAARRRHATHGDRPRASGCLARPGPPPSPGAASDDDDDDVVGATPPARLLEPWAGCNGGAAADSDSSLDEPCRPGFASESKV
T3 sequence (P14416 1-414 isoform P14416-2): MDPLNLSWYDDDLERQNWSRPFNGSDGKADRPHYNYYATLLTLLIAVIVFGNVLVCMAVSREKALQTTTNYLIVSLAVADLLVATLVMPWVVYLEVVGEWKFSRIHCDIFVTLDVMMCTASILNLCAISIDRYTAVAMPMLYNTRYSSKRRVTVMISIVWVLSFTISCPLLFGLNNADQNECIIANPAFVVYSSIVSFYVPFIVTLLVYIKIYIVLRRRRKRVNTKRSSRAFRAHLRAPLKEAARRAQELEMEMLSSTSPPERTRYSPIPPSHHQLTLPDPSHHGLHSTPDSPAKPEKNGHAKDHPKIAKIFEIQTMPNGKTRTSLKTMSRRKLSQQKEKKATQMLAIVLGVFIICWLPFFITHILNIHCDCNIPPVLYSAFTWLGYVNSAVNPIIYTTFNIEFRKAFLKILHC

| EC50 (Adrenergic β2) | β2 Int Act (Adrenergic β2) | IC50 [1] | IC50 [2] | Compound |
| --- | --- | --- | --- | --- |
| 0.00501 µM | 0.85 | 0.794 µM | 0.398 µM | O=C(CCNCCc1ccccc1)N(CCNCCc1ccc(O)c2[nH]c(=O)sc12)CC12CC3CC(CC(C3)C1)C2 [Example 59, N^1-(1-Adamantylmethyl)-N^1-(2-{[2-(4-hydroxy-2-oxo-2,3-dihydro-1,3-benzothiazol-7-yl)ethyl]amino}ethyl)-N^3-(2-phenylethyl)-β-alaninamide bis-trifluoroacetic acid salt] |
| 0.000398 µM | 0.97 | 3.98 µM | 0.1 µM | O=C(CCNCCc1cccc(O)c1)N(CCNCCc1ccc(O)c2[nH]c(=O)sc12)C1CCCCC1 [Example 71, N^1-Cyclohexyl-N^1-(2-{[2-(4-hydroxy-2-oxo-2,3-dihydro-1,3-benzothiazol-7-yl)ethyl]amino}ethyl)-N^3-[2-(3-hydroxyphenyl)ethyl]-β-alaninamide bis-trifluoroacetic acid salt] |
| 0.00501 µM | 0.59 | 2.51 µM | 0.0251 µM | O=C(CCNCCc1ccc(Cl)cc1)N(CCNCCc1ccc(O)c2[nH]c(=O)sc12)C1CCCCCC1 [Example 51, N^3-[2-(4-Chlorophenyl)ethyl]-N^1-cycloheptyl-N^1-(2-{[2-(4-hydroxy-2-oxo-2,3-dihydro-1,3-benzothiazol-7-yl)ethyl]amino}ethyl)-β-alaninamide bis-trifluoroacetic acid salt] |
| 0.00501 µM | 0.96 | 3.16 µM | 0.316 µM | O=C(CCNCCc1cccc(Cl)c1)N(CCNCCc1ccc(O)c2[nH]c(=O)sc12)C1CCCC1 [Example 30, N^3-[2-(3-Chlorophenyl)ethyl]-N-cyclopentyl-N-(2-{[2-(4-hydroxy-2-oxo-2,3-dihydro-1,3-benzothiazol-7-yl)ethyl]amino}ethyl)-β-alaninamide bis-trifluoroacetic acid salt] |
| 0.001 µM | 0.91 | 3.98 µM | 0.398 µM | O=C(CCNCCc1cccc(O)c1)N(CCNCCc1ccc(O)c2[nH]c(=O)sc12)C1CCCCCC1 [Example 37, N-Cycloheptyl-N-(2-{[2-(4-hydroxy-2-oxo-2,3-dihydro-1,3-benzothiazol-7-yl)ethyl]amino}ethyl)-N^3-[2-(3-hydroxyphenyl)ethyl]-β-alaninamide bis-trifluoroacetic acid salt] |
| 0.0631 µM | 0.42 | 5.01 µM | 0.794 µM | CC(C)(C)CN(CCNCCc1ccc(O)c2[nH]c(=O)sc12)C(=O)CCNC(C)(C)Cc1ccccc1 [Example 38, N^3-(1,1-Dimethyl-2-phenylethyl)-N-(2,2-dimethylpropyl)-N-(2-{[2-(4-hydroxy-2-oxo-2,3-dihydro-1,3-benzothiazol-7-yl)ethyl]amino}ethyl)-β-alaninamide bis-trifluoroacetic acid salt] |

The next lines start with the molecule.

| Compound | EC50 (Adrenergic β2) | β2 Int Act (Adrenergic β2) | IC50 [1] | IC50 [2] |
| --- | --- | --- | --- | --- |
| CC(CN(C(=O)CCNCCc1cccc(F)c1)C1CCCCCC1)NCCc1ccc(O)c2[nH]c(=O)sc12 (stereo not drawn) [Example 104, N-Cycloheptyl-N^3-[2-(3-fluorophenyl)ethyl]-N-(2-{[2-(4-hydroxy-2-oxo-2,3-dihydro-1,3-benzothiazol-7-yl)ethyl]amino}propyl)-β-alaninamide bis-trifluoroacetic acid salt] | 0.00501 µM | 0.81 | 0.794 µM | 0.0631 µM |
| O=C(CCNCCc1ccccc1)N(CCNCCc1ccc(O)c2[nH]c(=O)sc12)C1CCCCCC1 [Example 23, N-Cycloheptyl-N-(2-{[2-(4-hydroxy-2-oxo-2,3-dihydro-1,3-benzothiazol-7-yl)ethyl]amino}ethyl)-N^3-(2-phenylethyl)-β-alaninamide bis-trifluoroacetic acid salt] | 0.001 µM | 0.85 | 3.98 µM | 0.251 µM |
| O=C(CCNCCc1ccc(F)cc1Cl)N(CCNCCc1ccc(O)c2[nH]c(=O)sc12)C1CCCCCC1 [Example 57, N^3-[2-(2-Chloro-4-fluorophenyl)ethyl]-N^1-cycloheptyl-N^1-(2-{[2-(4-hydroxy-2-oxo-2,3-dihydro-1,3-benzothiazol-7-yl)ethyl]amino}ethyl)-β-alaninamide bis-trifluoroacetic acid salt] | 0.02 µM | 0.72 | 2.51 µM | 0.0316 µM |
| CC(C)(CO)CN(CCNCCc1ccc(O)c2[nH]c(=O)sc12)C(=O)CCNCCc1cccc(Cl)c1 [Example 66, N^3-[2-(3-Chlorophenyl)ethyl]-N^1-(3-hydroxy-2,2-dimethylpropyl)-N^1-(2-{[2-(4-hydroxy-2-oxo-2,3-dihydro-1,3-benzothiazol-7-yl)ethyl]amino}ethyl)-β-alaninamide bis-trifluoroacetic acid salt] | 0.0126 µM | 0.59 | 1.58 µM | 0.631 µM |
| O=C(CCNCCc1cccs1)N(CCNCCc1ccc(O)c2[nH]c(=O)sc12)C1CCCCCC1 [Example 52, N^1-Cycloheptyl-N^1-(2-{[2-(4-hydroxy-2-oxo-2,3-dihydro-1,3-benzothiazol-7-yl)ethyl]amino}ethyl)-N^3-[2-(2-thienyl)ethyl]-β-alaninamide bis-trifluoroacetic acid salt] | 0.00316 µM | 0.92 | 1.58 µM | 0.0398 µM |
| O=C(CCNCCc1cccc(Cl)c1)N(CCNCCc1ccc(O)c2[nH]c(=O)sc12)C1Cc2ccccc2C1 [Example 42, N^3-[2-(3-Chlorophenyl)ethyl]-N^1-(2,3-dihydro-1H-inden-2-yl)-N^1-(2-{[2-(4-hydroxy-2-oxo-2,3-dihydro-1,3-benzothiazol-7-yl)ethyl]amino}ethyl)-β-alaninamide bis-trifluoroacetic acid salt] | 0.0158 µM | 0.82 | 1.26 µM | 0.1 µM |
| CC(C)(C)CN(CCNCCc1ccc(O)c2[nH]c(=O)sc12)C(=O)CCNCCc1cccc(F)c1 [Example 44, N^1-(2,2-Dimethylpropyl)-N^3-[2-(3-fluorophenyl)ethyl]-N^1-(2-{[2-(4-hydroxy-2-oxo-2,3-dihydro-1,3-benzothiazol-7-yl)ethyl]amino}ethyl)-β-alaninamide bis-trifluoroacetic acid salt] | 0.00631 µM | 0.73 | 5.01 µM | 0.126 µM |
| O=C(CCNCCc1cc(F)ccc1F)N(CCNCCc1ccc(O)c2[nH]c(=O)sc12)C1CCCCCC1 [Example 83, N^1-Cycloheptyl-N^3-[2-(2,5-difluorophenyl)ethyl]-N^1-(2-{[2-(4-hydroxy-2-oxo-2,3-dihydro-1,3-benzothiazol-7-yl)ethyl]amino}ethyl)-β-alaninamide bis-trifluoroacetic acid salt] | 0.00398 µM | 0.71 | 5.01 µM | 0.0631 µM |
| O=C(CCNCCc1cccc(F)c1)N(CCNCCc1ccc(O)c2[nH]c(=O)sc12)C1CCCCC1 [Example 96, N-Cyclohexyl-N^3-[2-(3-fluorophenyl)ethyl]-N-(2-{[2-(4-hydroxy-2-oxo-2,3-dihydro-1,3-benzothiazol-7-yl)ethyl]amino}ethyl)-β-alaninamide dihydrobromide salt] | 0.00251 µM | 0.85 | 6.31 µM | 0.398 µM |
| O=C(CCNCCc1cc(F)cc(F)c1)N(CCNCCc1ccc(O)c2[nH]c(=O)sc12)C1CCCCC1 [Example 78, N^1-Cyclohexyl-N^3-[2-(3,5-difluorophenyl)ethyl]-N^1-(2-{[2-(4-hydroxy-2-oxo-2,3-dihydro-1,3-benzothiazol-7-yl)ethyl]amino}ethyl)-β-alaninamide bis-trifluoroacetic acid salt] | 0.00316 µM | 0.91 | 3.98 µM | 0.316 µM |
